# Patent US20170050939A1, “SMALL MOLECULE INHIBITORS OF G PROTEIN COUPLED RECEPTOR 6 KINASE POLYPEPTIDES” (Mayo Foundation for Medical Education and Research, priority 2014, published 2017)
# Where two headings read alike, the source gives them in different places.
# Target: T1, GRK6, recombinant full-length GST-tagged human protein (Homo sapiens, UniProt P43250)
# T1 construct: GRK6, recombinant full-length GST-tagged human protein; GST
# Test: GRK6 IC50 determination (8-point concentration-response)
# Type: biochemical
# From the text: Two hundred forty compounds were further characterized by determining IC50 values in a GRK6 assay. This screen has been previously described in WO 2013/063458, which is incorporated by reference in its entirety herein.
# [1] = 20 nM GRK6, 12 μM ATP (Km), 1 μM Peptide 216, 7 h incubation
# T1 sequence (P43250 whole entry): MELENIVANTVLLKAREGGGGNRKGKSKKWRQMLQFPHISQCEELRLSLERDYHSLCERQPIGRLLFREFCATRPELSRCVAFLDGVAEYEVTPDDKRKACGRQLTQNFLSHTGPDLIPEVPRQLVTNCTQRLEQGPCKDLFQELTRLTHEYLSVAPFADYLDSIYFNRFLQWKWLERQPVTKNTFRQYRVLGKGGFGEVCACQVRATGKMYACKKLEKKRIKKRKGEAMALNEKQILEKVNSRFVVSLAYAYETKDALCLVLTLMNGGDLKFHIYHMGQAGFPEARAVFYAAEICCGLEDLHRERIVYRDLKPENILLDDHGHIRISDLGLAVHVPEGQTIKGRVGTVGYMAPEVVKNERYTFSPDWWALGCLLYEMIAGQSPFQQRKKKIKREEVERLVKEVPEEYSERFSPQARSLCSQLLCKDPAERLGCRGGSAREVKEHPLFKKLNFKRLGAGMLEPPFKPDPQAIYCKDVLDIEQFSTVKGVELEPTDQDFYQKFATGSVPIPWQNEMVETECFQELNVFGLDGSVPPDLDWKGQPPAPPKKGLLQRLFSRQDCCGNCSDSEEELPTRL
Compound,IC50 [nM],IC50 [1] [nM]
O=C(O)CSc1nnc(-c2cc(-c3ccc4[nH]ccc4c3)cc([N+](=O)[O-])c2)[nH]1 [Compound 5],73.9,–
O=C(O)CSc1nnc(-c2cc(-c3ccc4ccccc4c3)cc([N+](=O)[O-])c2)[nH]1 [Compound 6],78.4,–
O=C(O)CSc1nnc(-c2cc(-c3cccc4[nH]ccc34)cc([N+](=O)[O-])c2)[nH]1 [Compound 8],101,–
Cc1c(-c2ccc3c(ccn3C)c2)cc(-c2nnc(SCC(=O)O)[nH]2)cc1[N+](=O)[O-] [Compound 9],103,–
O=C(O)CSc1nnc(-c2cc(-c3cccc4[nH]ncc34)cc([N+](=O)[O-])c2)[nH]1 [Compound 10],114,–
CCn1ccc2cc(-c3cc(-c4nnc(SCC(=O)O)[nH]4)cc([N+](=O)[O-])c3)ccc21 [Compound 11],118,–
Cn1ccc2c(-c3cc(-c4nnc(SCC(=O)O)[nH]4)cc([N+](=O)[O-])c3)cccc21 [Compound 16],140,–
N#Cc1cc(-c2ccc3ccccc3c2)cc(-c2nnc(SCC(=O)O)[nH]2)c1 [Compound 17],168,–
N#CCc1cc(-c2ccc3ccccc3c2)cc(-c2nnc(SCC(=O)O)[nH]2)c1 [Compound 18],178,–
O=C(O)CSc1nnc(-c2cc(-c3ccc4ncccc4c3)cc([N+](=O)[O-])c2)[nH]1 [Compound 19],180,–
COc1ccc2cc(-c3cc(-c4nnc(SCC(=O)O)[nH]4)cc([N+](=O)[O-])c3)ccc2c1 [Compound 23],199,–
CC(=O)Nc1ccc(-c2cc(-c3nnc(SCC(=O)O)[nH]3)cc([N+](=O)[O-])c2)cc1 [Compound 27],262,–
O=C(O)CSc1nnc(-c2cc(-c3ccc4ccccc4c3)cc(C3C=NN=C3)c2)[nH]1 [Compound 28],262,–
CN1CCOc2cc(-c3cc(-c4nnc(SCC(=O)O)[nH]4)cc([N+](=O)[O-])c3)ccc21 [Compound 29],269,–
CS(=O)(=O)Nc1cccc(-c2cc(-c3nnc(SCC(=O)O)[nH]3)cc([N+](=O)[O-])c2)c1 [Compound 32],300,–
"O=C(O)CSc1nnc(-c2cc(-c3ccc4[nH]c(-c5ccccc5)cc4c3)cc([N+](=O)[O-])c2)[nH]1 [Compound 33, 2-((3-(3-nitro-5-(2-phenyl-1H-indol-5-yl)phenyl)-1H-1,2,4-triazol-5-yl)thio)acetic acid]",302,–

Compound,IC50 [nM],IC50 [1] [nM]
COc1ccncc1-c1cc(-c2ccc3ccccc3c2)cc(-c2nnc(SCC(=O)O)[nH]2)c1 [Compound 36],352,–
Cc1c(-c2cc(-c3ccc4ccccc4c3)cc(-c3nnc(SCC(=O)O)[nH]3)c2)cnn1C [Compound 38],376,–
O=C(O)CSc1nc(-c2cc(Br)cc(-c3ccc4ccccc4c3)c2)n[nH]1 [Compound 40],421,–
COc1cc(Cl)cc(-c2cccc(-c3nnc(SCC(=O)O)[nH]3)c2)c1 [Compound 41],–,426
CNC(=O)c1ccc(-c2cc(-c3nnc(SCC(=O)O)[nH]3)cc([N+](=O)[O-])c2)cc1 [Compound 45],440,–
CS(=O)(=O)Nc1ccc(-c2cc(-c3nnc(SCC(=O)O)[nH]3)cc([N+](=O)[O-])c2)cc1 [Compound 47],473,–
Cn1c(-c2ccccc2)cc2cc(-c3cc(-c4nnc(SCC(=O)O)[nH]4)cc([N+](=O)[O-])c3)ccc21 [Compound 48],499,–
O=C(O)CSc1nnc(-c2cc(-c3ccc4nccnc4c3)cc([N+](=O)[O-])c2)[nH]1 [Compound 50],509,–
CN(C)c1ccc(-c2cc(-c3nnc(SCC(=O)O)[nH]3)cc([N+](=O)[O-])c2)cc1 [Compound 52],518,–
O=C(O)CSc1nnc(-c2cc(-c3ccc4ccccc4c3)cc(-c3cnccc3F)c2)[nH]1 [Compound 58],751,–
CS(=O)(=O)c1cccc(-c2cc(-c3nnc(SCC(=O)O)[nH]3)cc([N+](=O)[O-])c2)c1 [Compound 60],779,–
CC(C)(O)c1ccc(-c2cc(-c3nnc(SCC(=O)O)[nH]3)cc([N+](=O)[O-])c2)cc1 [Compound 61],786,–
Cc1ccc(-c2cc(-c3ccc4ccccc4c3)cc(-c3nnc(SCC(=O)O)[nH]3)c2)o1 [Compound 63],824,–
COc1ccc(-c2cc(-c3ccc4ccccc4c3)cc(-c3nnc(SCC(=O)O)[nH]3)c2)cn1 [Compound 66],1080,–
COc1ncccc1-c1cc(-c2ccc3ccccc3c2)cc(-c2nnc(SCC(=O)O)[nH]2)c1 [Compound 68],1580,–
O=C(O)CSc1nnc(-c2cc(-c3ccc(C(F)(F)F)nc3)cc(-c3ccc4ccccc4c3)c2)[nH]1 [Compound 70],2730,–

# Now from value to compound:
IC50 [nM],IC50 [1] [nM],Compound
50,–,Cn1ccc2ccc(-c3cc(-c4nnc(SCC(=O)O)[nH]4)cc([N+](=O)[O-])c3)cc21 [Compound 1]
58.8,–,O=C(O)CSc1nnc(-c2cc(-c3ccc(-c4ccn[nH]4)cc3)cc([N+](=O)[O-])c2)[nH]1 [Compound 2]
60,–,Cn1ccc2cc(-c3cc(-c4nnc(SCC(=O)O)[nH]4)cc([N+](=O)[O-])c3)ccc21 [Compound 3]
67.4,–,O=C(O)CSc1nnc(-c2cc(-c3ccc4[nH]cc(-c5ccccc5)c4c3)cc([N+](=O)[O-])c2)[nH]1 [Compound 4]
92.3,–,O=C(O)CSc1nnc(-c2cc(-c3cccc(-c4cc[nH]n4)c3)cc([N+](=O)[O-])c2)[nH]1 [Compound 7]
122,–,O=C(O)CSc1nnc(-c2cc(-c3ccc4cc[nH]c4c3)cc([N+](=O)[O-])c2)[nH]1 [Compound 12]
122,–,O=C(O)CSc1nnc(-c2cc(-c3ccc4ccccc4c3)cc(-c3cnco3)c2)[nH]1 [Compound 13]
136,–,COc1cc(Cl)cc(-c2cc(-c3nnc(SCC(=O)O)[nH]3)cc([N+](=O)[O-])c2)c1 [Compound 14]
140,–,O=C(O)CSc1nnc(-c2cc(-c3ccc4[nH]ncc4c3)cc([N+](=O)[O-])c2)[nH]1 [Compound 15]
184,–,O=C(O)CSc1nnc(-c2cc(-c3ccc4scnc4c3)cc([N+](=O)[O-])c2)[nH]1 [Compound 20]
184,–,Cn1ncc2cc(-c3cc(-c4nnc(SCC(=O)O)[nH]4)cc([N+](=O)[O-])c3)ccc21 [Compound 21]
187,–,O=C(O)CSc1nnc(-c2cc(-c3ccc(O)cc3)cc([N+](=O)[O-])c2)[nH]1 [Compound 22]
212,–,O=C(O)CSc1nnc(-c2cc(-c3cccc(O)c3)cc([N+](=O)[O-])c2)[nH]1 [Compound 24]
227,–,CCCn1ccc2cc(-c3cc(-c4nnc(SCC(=O)O)[nH]4)cc([N+](=O)[O-])c3)ccc21 [Compound 25]
249,–,O=C(O)CSc1nnc(-c2cc(-c3ccc4[nH]cnc4c3)cc([N+](=O)[O-])c2)[nH]1 [Compound 26]
275,–,O=C(O)CSc1nnc(-c2cc(-c3ccc4c(c3)OCO4)cc([N+](=O)[O-])c2)[nH]1 [Compound 30]
283,–,O=C(O)CSc1nnc(-c2cc(-c3cccnc3)cc(-c3ccc4ccccc4c3)c2)[nH]1 [Compound 31]
349,–,Cc1cncc(-c2cc(-c3ccc4ccccc4c3)cc(-c3nnc(SCC(=O)O)[nH]3)c2)c1 [Compound 34]
351,–,CC(=O)Nc1cc(-c2ccc3ccccc3c2)cc(-c2nnc(SCC(=O)O)[nH]2)c1 [Compound 35]
359,–,O=C(O)CSc1nnc(-c2cc(-c3cccc4cnccc34)cc([N+](=O)[O-])c2)[nH]1 [Compound 37]

IC50 [nM],IC50 [1] [nM],Compound
–,417,O=C(O)CSc1nnc(-c2cccc(-c3ccc4ccccc4c3)c2)[nH]1 [Compound 39]
431,–,CC(=O)Nc1cccc(-c2cc(-c3nnc(SCC(=O)O)[nH]3)cc([N+](=O)[O-])c2)c1 [Compound 42]
433,–,Nc1cc(-c2ccc3ccccc3c2)cc(-c2nnc(SCC(=O)O)[nH]2)c1 [Compound 43]
437,–,Cc1ncc(-c2cc(-c3ccc4ccccc4c3)cc(-c3nnc(SCC(=O)O)[nH]3)c2)cn1 [Compound 44]
461,–,COc1cncc(-c2cc(-c3ccc4ccccc4c3)cc(-c3nnc(SCC(=O)O)[nH]3)c2)c1 [Compound 46]
507,–,CNS(=O)(=O)c1cccc(-c2cc(-c3nnc(SCC(=O)O)[nH]3)cc([N+](=O)[O-])c2)c1 [Compound 49]
–,510,COc1ccc2cc(-c3cccc(-c4nnc(SCC(=O)O)[nH]4)c3)ccc2c1 [Compound 51]
538,–,CN(C)c1cccc(-c2cc(-c3nnc(SCC(=O)O)[nH]3)cc([N+](=O)[O-])c2)c1 [Compound 53]
598,–,Cc1cc(-c2cc(-c3ccc4ccccc4c3)cc(-c3nnc(SCC(=O)O)[nH]3)c2)cnc1C [Compound 54]
631,–,O=C(O)CSc1nnc(-c2cc(-c3cncc(F)c3)cc(-c3ccc4ccccc4c3)c2)[nH]1 [Compound 55]
686,–,O=C(O)CSc1nnc(-c2cc(-c3ccoc3)cc(-c3ccc4ccccc4c3)c2)[nH]1 [Compound 56]
748,–,Cc1nn(C)cc1-c1cc(-c2ccc3ccccc3c2)cc(-c2nnc(SCC(=O)O)[nH]2)c1 [Compound 57]
768,–,O=C(O)CSc1nnc(-c2cc(NC(=O)c3ccco3)cc(-c3ccc4ccccc4c3)c2)[nH]1 [Compound 59]
824,–,CNS(=O)(=O)c1ccc(-c2cc(-c3nnc(SCC(=O)O)[nH]3)cc([N+](=O)[O-])c2)cc1 [Compound 62]
–,919,N#Cc1cccc(-c2cccc(-c3nnc(SCC(=O)O)[nH]3)c2)c1 [Compound 64]
1020,–,Cc1noc(C)c1-c1cc(-c2ccc3ccccc3c2)cc(-c2nnc(SCC(=O)O)[nH]2)c1 [Compound 65]
1310,–,O=C(O)CSc1nnc(-c2cc(NC(=O)c3ccoc3)cc(-c3ccc4ccccc4c3)c2)[nH]1 [Compound 67]
1860,–,O=C(O)CSc1nnc(-c2cc(-c3ccncc3)cc(-c3ccc4ccccc4c3)c2)[nH]1 [Compound 69]
131,–,O=C(O)CSc1nnc(-c2cc(-c3cnn(-c4cccc(Cl)c4)c3)cc([N+](=O)[O-])c2)[nH]1 [Compound 71]
141,–,O=C(O)CSc1nnc(-c2cc(-c3cnn(Cc4ccccc4)c3)cc([N+](=O)[O-])c2)[nH]1 [Compound 72]
